These results are taken from article PMC8286840, “Identifying SARS-CoV-2 antiviral compounds by screening for small molecule inhibitors of Nsp3 papain-like protease” (Biochemical Journal, 2021).

Where a name gives a salt, the structure may show the parent alone. Read-outs that look alike come from different tables or passages of the source.

The target in assay [1] is T1, SARS-CoV-2 PLpro (nsp3 1564–1878) (Severe acute respiratory syndrome coronavirus 2, UniProt P0DTD1). In words: biochemical. Details: FRET-quenched peptide (Pro3) cleavage by PLpro, 10 min pre-incubation, slope over 20 min, normalised to no-compound control. Particulars: low concentration screen, read-out: % of control remaining.
Assay [2] deals with T1, SARS-CoV-2 PLpro (nsp3 1564–1878). Nature of the assay: biochemical. Also on record: FRET-quenched peptide (Pro3) cleavage by PLpro, 10 min pre-incubation, slope over 20 min, normalised to no-compound control. Particulars: high concentration screen, read-out: % of control remaining.

Regarding `CCn1c(=O)c2c(nc(/C=C/c3ccc(OC)c(OC)c3)n2C)n(CC)c1=O` [Istradefylline], the remaining activity at 1.25 µM came to 98.1% in assay [1] (Well no.=6903) and 109% in assay [1] (Well no.=8461). For the same compound, the values for the remaining activity at 3.75 µM in assay [2] (Well no.=6903) and in assay [2] (Well no.=8461) were 99.6% and 101%, respectively.
For `C[N+](C)(C)CCOC(=O)CCC(=O)OCC[N+](C)(C)C` [Succinylcholine], in assay [1] (Well no.=2294), the remaining activity at 1.25 µM stood at 90.2%. In assay [2] (Well no.=2294), the remaining activity at 3.75 µM came to 95.9%.
On to `CC(=O)SCC(Cc1ccccc1)C(=O)NCC(=O)OCc1ccccc1` (stereo not drawn) [Racecadotril], for which the remaining activity at 1.25 µM in assay [1] (Well no.=2191) stood at 97.6%. Moreover, the remaining activity at 3.75 µM in assay [2] (Well no.=2191) was determined as 95.7%.
For the compound `CC[N+](CC)(CC)CCOc1cccc(OCC[N+](CC)(CC)CC)c1OCC[N+](CC)(CC)CC` [Gallamine triethiodide], the remaining activity at 1.25 µM turned out to be 91.1% in assay [1] (Well no.=717) and 105% in assay [1] (Well no.=6753). Further, the remaining activity at 3.75 µM in assay [2] (Well no.=717) is 87.8%; in assay [2] (Well no.=6753), 103%.
Turning to `NC(=O)c1ccc(OCC(O)CN2CC=C(c3ccc(F)cc3)CC2)cc1` (stereo not drawn) [Ro 8-4304], the remaining activity at 1.25 µM in assay [1] (Well no.=1160) was found to be 98.3%. In addition, the remaining activity at 3.75 µM in assay [2] (Well no.=1160) was determined as 99.3%.
For `O=C(Nc1ccc(C(O)(C(F)(F)F)C(F)(F)F)cc1)c1ccccc1Cl` [SR0987], in assay [1] (Well no.=8133), the remaining activity at 1.25 µM came out at 95.1%. The remaining activity at 3.75 µM in assay [2] (Well no.=8133) was determined as 99.6%.
Turning to `C=CCCCCCCCCCC(=O)O` [11-Dodecenoic acid], the remaining activity at 1.25 µM in assay [1] (Well no.=4258) worked out at 98.8%. The remaining activity at 3.75 µM in assay [2] (Well no.=4258) was 96.7%.
Take `CN(C)C/C=C(/c1ccc(Br)cc1)c1cccnc1` [Zimelidine dihydrochloride]: in assay [1] (Well no.=1534), the remaining activity at 1.25 µM worked out at 96.1%. Also, in assay [2] (Well no.=1534), the remaining activity at 3.75 µM is 96%.
Take `Cc1ccc(F)cc1C(=O)Nc1ccc(C(=O)N2Cc3cccn3Cc3ccccc32)c(Cl)c1` [N-[3-chloro-4-(5H-pyrrolo[2,1-c][1,4]benzodiazepin-10(11H)-ylcarbonyl)phenyl]-5-fluoro-2-methylbenzamide]: the remaining activity at 1.25 µM in assay [1] (Well no.=5601) came out at 103%. Also, the remaining activity at 3.75 µM in assay [2] (Well no.=5601) stood at 107%.
For `CCCN(CCC)[C@@H]1CCc2cccc(O)c2C1` [R-(+)-8-Hydroxy-DPAT hydrobromide], the remaining activity at 1.25 µM in assay [1] (Well no.=762) was 92.2%. The remaining activity at 3.75 µM in assay [2] (Well no.=762) is 88.8%.
With `N#CC(=C(/N)Sc1ccccc1N)/C(C#N)=C(\N)Sc1ccccc1N` [U0126], the remaining activity at 1.25 µM in assay [1] (Well no.=1240) worked out at 99.2%. Besides, in assay [2] (Well no.=1240), the remaining activity at 3.75 µM came out at 101%.
`C=C1[C@@H](C)[C@H]2[C@H](Cc3ccccc3)NC(=O)[C@]23OC(=O)/C=C/[C@H](O)CCC[C@@H](C)C/C=C/[C@H]3[C@@H]1O` [Cytochalasin B]: the remaining activity at 1.25 µM in assay [1] (Well no.=3189) is 98%. Also, in assay [2] (Well no.=3189), the remaining activity at 3.75 µM worked out at 98.1%.
In the case of `Cc1cc(-c2ccc(/N=N/c3ccc4c(S(=O)(=O)O)cc(S(=O)(=O)O)c(N)c4c3O)c(C)c2)ccc1/N=N/c1ccc2c(S(=O)(=O)O)cc(S(=O)(=O)O)c(N)c2c1O` [Evans Blue], in assay [1] (Well no.=8652), the remaining activity at 1.25 µM turned out to be 99.2%. For the same compound, the remaining activity at 3.75 µM in assay [2] (Well no.=8652) is 92.3%.
In the case of `O=C(Nc1cc(Cl)cc(Cl)c1)[C@H]1CCCC[C@H]1C(=O)O` [(1R,2S)-VU0155041], in assay [1] (Well no.=8475), the remaining activity at 1.25 µM was found to be 99%. The remaining activity at 3.75 µM in assay [2] (Well no.=8475) was 103%.
In the case of `CNCCc1ccc(O)c(O)c1` [N-Methyldopamine hydrochloride], the remaining activity at 1.25 µM in assay [1] (Well no.=693) came to 90.9%. Also, the remaining activity at 3.75 µM in assay [2] (Well no.=693) amounted to 91.2%.
For the compound `COc1ccccc1S(=O)(=O)Nc1ccc2c(c1)CN(C)C(=O)N2` [PFI-1], the remaining activity at 1.25 µM in assay [1] (Well no.=4844) was determined as 97%. Further, the remaining activity at 3.75 µM in assay [2] (Well no.=4844) came out at 88.7%.
As to `Cc1nc2c(c(=O)[nH]1)CSCC2` [DR2313], the remaining activity at 1.25 µM in assay [1] (Well no.=5778) amounted to 96.1%. Moreover, the remaining activity at 3.75 µM in assay [2] (Well no.=5778) turned out to be 96.7%.
For `CC[C@H]1OC(=O)[C@H](C)[C@@H](O[C@H]2C[C@@](C)(OC)[C@@H](O)[C@H](C)O2)[C@H](C)[C@@H](O[C@@H]2O[C@H](C)C[C@H](N(C)C)[C@H]2O)[C@](C)(OC)C[C@@H](C)C(=O)[C@H](C)[C@@H](O)[C@]1(C)O` [Clarithromycin], the remaining activity at 1.25 µM in assay [1] (Well no.=2267) came to 89%. In addition, the remaining activity at 3.75 µM in assay [2] (Well no.=2267) was 89.2%.
As for `CN(C)C(=O)Nc1cccc(-c2ccc(N(C)C)cc2)c1` [Atglistatin], in assay [1] (Well no.=5396), the remaining activity at 1.25 µM amounted to 98.8%. For the same compound, in assay [2] (Well no.=5396), the remaining activity at 3.75 µM worked out at 81.1%.
`COc1ccc2c3n(c(=NC(=O)c4cccnc4)nc2c1OC)CCN3` [PIK-90]: in assay [1] (Well no.=2747), the remaining activity at 1.25 µM is 91.2%. In assay [2] (Well no.=2747), the remaining activity at 3.75 µM worked out at 95%.
In the case of `CN(C)c1nc(N)c(C(=O)NC(=N)N)nc1Cl` [5-(N,N-Dimethyl)amiloride hydrochloride], in assay [1] (Well no.=63), the remaining activity at 1.25 µM is 102%. The remaining activity at 3.75 µM in assay [2] (Well no.=63) worked out at 99%.
`CCCCCCCN(CC)CCCC(O)c1ccc(NS(C)(=O)=O)cc1` (stereo not drawn) [Ibutilide fumarate]: the remaining activity at 1.25 µM in assay [1] (Well no.=5096) worked out at 93.1%. In addition, the remaining activity at 3.75 µM in assay [2] (Well no.=5096) came to 102%.
Regarding `CC[C@@]1(O)C[C@H](O[C@H]2C[C@H](N(C)C)[C@H](O[C@H]3C[C@H](O)[C@H](O[C@H]4CCC(=O)[C@H](C)O4)[C@H](C)O3)[C@H](C)O2)c2c(cc3c(c2O)C(=O)c2c(O)cccc2C3=O)[C@H]1C(=O)OC` [Aclarubicin], in assay [1] (Well no.=1573), the remaining activity at 1.25 µM came to 101%. In addition, in assay [2] (Well no.=1573), the remaining activity at 3.75 µM is 96.4%.
On to `CN1CCC(=C2c3ccccc3C=Cc3ccccc32)CC1` [Cyproheptadine hydrochloride], for which the remaining activity at 1.25 µM in assay [1] (Well no.=38) came out at 93.9%. In addition, the remaining activity at 3.75 µM in assay [2] (Well no.=38) amounted to 91.5%.
For the compound `CCCNCC(O)COc1ccccc1C(=O)CCc1ccccc1` (stereo not drawn) [Propafenone], in assay [1] (Well no.=1641), the remaining activity at 1.25 µM came to 109%. Besides, the remaining activity at 3.75 µM in assay [2] (Well no.=1641) worked out at 110%.
For `CN1CC(=O)NC1=N` [Creatinine], the figures for the remaining activity at 1.25 µM in assay [1] (Well no.=5324) and in assay [1] (Well no.=6967) were 96.6% and 104%, respectively. For the same compound, the remaining activity at 3.75 µM in assay [2] (Well no.=5324) is 92.2%; in assay [2] (Well no.=6967), 101%.
Consider `CCc1ccc(O)cc1` [4-Ethylphenol], for which the remaining activity at 1.25 µM in assay [1] (Well no.=6679) was 103%. Besides, the remaining activity at 3.75 µM in assay [2] (Well no.=6679) was found to be 104%.
Take `C[C@]12CCC(=O)C(O)=C1CC[C@@H]1[C@@H]2CC[C@]2(C)C(=O)CC[C@@H]12` [Formestane]: the remaining activity at 1.25 µM in assay [1] (Well no.=2134) turned out to be 99.1%. The remaining activity at 3.75 µM in assay [2] (Well no.=2134) was 101%.
Regarding `COc1ccc(CCC(=O)Nc2nc3ccc(Cl)cc3s2)cc1OC` [KY02111], the remaining activity at 1.25 µM in assay [1] (Well no.=4782) stood at 105%. Also, the remaining activity at 3.75 µM in assay [2] (Well no.=4782) came to 98.2%.
For `C[C@]1(Cn2ccnn2)[C@H](C(=O)O)N2C(=O)C[C@H]2S1(=O)=O` [Tazobactam], the remaining activity at 1.25 µM in assay [1] (Well no.=7934) is 97.1%. Besides, the remaining activity at 3.75 µM in assay [2] (Well no.=7934) turned out to be 103%.
